In US8119671B2, “Isoxazoline-substituted benzamide compound and pest control agent” (Nissan Chemical Industries, Ltd., priority 2007, dated 2012):

What was measured:
Format in all cases: in vivo
Helicoverpa armigera = experiment: Test Example 17: Mortality Test for Helicoverpa armigera (Comparative Test 1); settings: 144 h, 3-instar larvae, after 6 days; for mortality at 3.3 ppm: concentration 3.3 ppm; for mortality at 10 ppm: concentration 10 ppm; for mortality at 33 ppm: concentration 33 ppm; for mortality at 100 ppm: concentration 100 ppm; for mortality at 0.1 ppm: concentration 0.1 ppm; for mortality at 0.3 ppm: concentration 0.3 ppm; for mortality at 1 ppm: concentration 1 ppm
Method: 10% emulsifiable concentrates of the compound of the present invention and a comparative compound were diluted with water containing a spreader to prepare drug solutions in a predetermined concentration. In these drug solutions, a leaf of Canarium album was immersed for about 10 seconds and was air-dried and then put into a petri dish. In the petri dish, seven 3-instar larvae of Helicoverpa armigera per petri dish were released and the petri dish was capped with a lid having pores and stored in a thermostat room of 25° C. After 2 days of the treatment, an artificial feed (1 cm^3) was added into the petri dish. The number of killed larvae after 6 days was measured and the mortality was calculated from the following calculation formula: Mortality (%)=(number of killed larvae/number of released larvae)×100. Here, the test was carried out with two replications.

[1] = system: Frankliniella occidentalis; experiment: Test Example 18: Mortality Test for Frankliniella occidentalis (Comparative Test 2); settings: 48 h
Method: In a styrol cup having an inner diameter of 7 cm, a wet filtration paper was laid, and on the paper, a leaf of kidney bean cut out so as to have the same diameter as the inner diameter of the cup was laid, followed by inoculating ten 1 instar larvae of Frankliniella occidentalis per leaf to the leaf. 10% emulsifiable concentrates of the compound of the present invention and a comparative compound were diluted with water containing a spreader to prepare drug solutions in a predetermined concentration. The drug solutions were dusted using a rotary dusting tower in an amount of 2.5 mL per styrol cup, and the cup was capped and stored in a thermostat room of 25° C. The number of killed larvae after 2 days was measured and the mortality was calculated from the following calculation formula: Mortality (%)=(number of killed larvae/number of released larvae)×100. Here, the test was carried out with two replications.

Homona magnanima = experiment: Test Example 3: Mortality Test for Homona magnanima; settings: 144 h
Method: (§1) A 10% emulsifiable concentrate of the compound of the present invention (depending on the type of the compound, a 10% wettable powder was subjected to the test) was diluted with water containing a spreader to prepare a drug solution in a concentration of 100 ppm. In this drug solution, a leaf of canarium album was immersed for about 10 seconds and was air-dried and then put into a petri dish. In the petri dish, five 2 instar larvae of Homona magnanima per petri dish were released and the petri dish was capped and stored in a thermostat room of 25° C. The number of killed larvae after 6 days was measured and the mortality was calculated from the same calculation formula as that in Test Example 1. Here, the test was carried out with two replications.

Liriomyza trifolii = experiment: Test Example 13: Mortality Test for Liriomyza trifolii; settings: 144 h, drug solution 500 ppm, kidney bean leaf with eggs immersed, after 6 days
Method: as §1, with “500” for “100”, “kidney bean on which Liriomyza trifolii laid eggs (10 eggs/leaf) and which was cut out to a diameter of 7 cm” for “canarium album”, “laid on” for “put into”, “wet filtration paper laid in a styrol cup having an inner diameter” for “petri dish. In the petri dish, five 2 instar larvae”, “7 cm. The styrol cup” for “Homona magnanima per petri dish were released and the petri dish”

Plutella xylostella = experiment: Test Example 1: Mortality Test for Plutella xylostella; settings: 144 h
Method: as §1, with “10” for “100”, “Plutella xylostella” for “Homona magnanima”, “following” for “same”, “formula: Mortality (%)=(number of killed larvae/number of released larvae)×100.” for “formula as that in Test Example 1.”

Spodoptera litura = experiment: Test Example 2: Mortality Test for Spodoptera litura; settings: 144 h
Method: as §1, with “10” for “100”, “Spodoptera litura” for “Homona magnanima”

Bemisia argentifolii = experiment: Test Example 9: Mortality Test for Bemisia argentifolii; settings: in Solanum lycopersicum, 144 h
Method: (§2) In a styrol cup having an inner diameter of 7 cm, a wet filtration paper was laid, and on the paper, a cut-out leaf of tomato on which Bemisia argentifolii laid eggs (10 eggs/leaf) was laid. A 10% emulsifiable concentrate of the compound of the present invention (depending on the type of the compound, a 10% wettable powder was subjected to the test) was diluted with water containing a spreader to prepare a drug solution in a concentration of 500 ppm. The drug solution was dusted using a rotary dusting tower in an amount of 2.5 mL per styrol cup and the cup was capped and stored in a thermostat room of 25° C. The number of killed larvae after 6 days was measured and the mortality was calculated from the same calculation formula as that in Test Example 1. Here, the test was carried out with two replications.

Myzus persicae = experiment: Test Example 10: Mortality Test for Myzus persicae; settings: 144 h
Method: In a glass petri dish having an inner diameter of 3 cm, a wet absorbent cotton was laid, and on the cotton, a leaf of canarium album cut out so as to have the same diameter as the inner diameter of the petri dish was laid, followed by releasing 4 apterous imagines of Myzus persicae on the leaf. After one day, 10% emulsifiable concentrate of the compound of the present invention (depending on the type of the compound, a 10% wettable powder was subjected to the test) was diluted with water containing a spreader to prepare a drug solution in a concentration of 500 ppm. The drug solution was dusted using a rotary dusting tower (2.5 mg/cm^2) and the petri dish was capped and stored in a thermostat room of 25° C. The number of killed imagines after 6 days was measured and the mortality was calculated from the same calculation formula as that in Test Example 1. Here, the test was carried out with two replications.

Planococcus kraunhiae = experiment: Test Example 11: Mortality Test for Planococcus kraunhiae; settings: 144 h
Method: as §2, with “a” for “a cut-out”, “kidney bean cut out so as to have the same diameter as the inner diameter of the cup” for “tomato on which Bemisia argentifolii laid eggs (10 eggs/leaf)”, “laid, followed by inoculating ten 1 instar larvae of Planococcus kraunhiae per leaf to the leaf.” for “laid.”

Question: Which mortality at 3.3 ppm (Helicoverpa armigera) does the source give for `CNC(=O)NC(=O)c1ccc(C2=NOC(c3cc(Cl)cc(Cl)c3)(C(F)(F)F)C2)cc1C` (centres unmarked) [Comparative compound A, reference compound] here?
Answer: The mortality at 3.3 ppm was 21.4%.

Question: What about the mortality at 10 ppm (Helicoverpa armigera) of the same compound?
Answer: Its mortality at 10 ppm is 92.9%.

Question: What about the mortality at 33 ppm (Helicoverpa armigera) of the same compound?
Answer: Its mortality at 33 ppm is 100%.

Question: What about the mortality at 100 ppm (Helicoverpa armigera) of the same compound?
Answer: Its mortality at 100 ppm is 100%.

Question: What does the source list for `COC(=NC(=O)c1ccc(C2=NOC(c3cc(Cl)cc(Cl)c3)(C(F)(F)F)C2)cc1C)SC` (centres unmarked) [Comparative compound B, reference compound]?
Answer: mortality at 3.3 ppm (Helicoverpa armigera): 35.7%; mortality at 10 ppm (Helicoverpa armigera): 71.4%; mortality at 33 ppm (Helicoverpa armigera): 85.7%; mortality at 100 ppm (Helicoverpa armigera): 100%

Question: How did the mortality at 3.3 ppm [1] turn out when `O=C(N[C@H]1C[C@@H]1c1ccccc1)c1ccc(C2=NOC(c3ccc(Cl)c(Cl)c3)(C(F)(F)F)C2)cc1` (some centres unmarked) [Comparative compound C] was run?
Answer: Its mortality at 3.3 ppm is 0%.

Question: And the mortality at 10 ppm [1]?
Answer: Its mortality at 10 ppm is 0%.

Question: What about the mortality at 33 ppm [1] of the same compound?
Answer: The mortality at 33 ppm was 0%.

Question: And the mortality at 100 ppm [1]?
Answer: Its mortality at 100 ppm is 0%.

Question: With `CCNC(=O)NC(=O)c1ccc(C2=NOC(c3cc(Cl)cc(Cl)c3)(C(F)(F)F)C2)cc1C` (centres unmarked) [Comparative compound D] as the compound, how does the mortality at 3.3 ppm [1] read?
Answer: The mortality at 3.3 ppm was 0%.

Question: And the mortality at 10 ppm [1]?
Answer: The mortality at 10 ppm was 45.7%.

Question: And the mortality at 33 ppm [1]?
Answer: Its mortality at 33 ppm is 100%.

Question: And the mortality at 100 ppm [1]?
Answer: The mortality at 100 ppm was 100%.

Question: What does the source list for `COC(N)=NC(=O)c1ccc(C2=NOC(c3cc(Cl)cc(Cl)c3)(C(F)(F)F)C2)cc1C` (centres unmarked) [No. 2-003, N-[Amino(methoxy)methylidene]-4-[5-(3,5-dichlorophenyl)-5-trifluoromethyl-4,5-dihydroisoxazole-3-yl]-2-methyl benzoic acid amide]?
Answer: mortality at 100 ppm (Homona magnanima): ≥ 80%; mortality at 0.1 ppm (Helicoverpa armigera): 57.1%; mortality at 0.3 ppm (Helicoverpa armigera): 85.7%; mortality at 1 ppm (Helicoverpa armigera): 100%; mortality at 3.3 ppm (Helicoverpa armigera): 100%; mortality at 10 ppm (Helicoverpa armigera): 100%

Question: What does the source list for `CSC(N)=NC(=O)c1ccc(C2=NOC(c3cc(Cl)cc(Cl)c3)(C(F)(F)F)C2)cc1C` (centres unmarked) [No. 2-010, N-(Amino(methylthio)methylidene)-4-(5-(3,5-dichlorophenyl)-5-trifluoromethyl-4,5-dihydroisoxazole-3-yl)-2-methyl benzoic acid amide]?
Answer: mortality at 100 ppm (Homona magnanima): ≥ 80%; mortality at 500 ppm (Liriomyza trifolii): ≥ 80%

Question: Which results are given for `CNC(N)=NC(=O)c1ccc(C2=NOC(c3cc(Cl)cc(Cl)c3)(C(F)(F)F)C2)cc1C` (centres unmarked) [No. 2-012, N-[Amino(methylamino)methylidene]-4-[5-(3,5-dichlorophenyl)-5-trifluoromethyl-4,5-dihydroisoxazole-3-yl]-2-methyl benzoic acid amide]?
Answer: mortality at 100 ppm (Plutella xylostella): ≥ 80%; mortality at 100 ppm (Spodoptera litura): ≥ 80%

Question: Which mortality at 100 ppm (Homona magnanima) does the source give for `CNC(=NC(=O)c1ccc(C2=NOC(c3cc(Cl)cc(Cl)c3)(C(F)(F)F)C2)cc1C)OC` (centres unmarked) [No. 3-001, N-[Methoxy(methylamino)methylidene]-4-[5-(3,5-dichlorophenyl)-5-trifluoromethyl-4,5-dihydroisoxazole-3-yl]-2-methyl benzoic acid amide] here?
Answer: The mortality at 100 ppm was at least 80%.

Question: And the mortality at 500 ppm (Bemisia argentifolii)?
Answer: The mortality at 500 ppm was at least 80%.

Question: What about the mortality at 500 ppm (Myzus persicae) of the same compound?
Answer: Its mortality at 500 ppm is at least 80%.

Question: What about the mortality at 500 ppm (Planococcus kraunhiae) of the same compound?
Answer: The mortality at 500 ppm was at least 80%.

Question: What about the mortality at 0.1 ppm (Helicoverpa armigera) of the same compound?
Answer: The mortality at 0.1 ppm was 0%.

Question: And the mortality at 0.3 ppm (Helicoverpa armigera)?
Answer: Its mortality at 0.3 ppm is 21.4%.

Question: And the mortality at 1 ppm (Helicoverpa armigera)?
Answer: Its mortality at 1 ppm is 71.4%.

Question: And the mortality at 3.3 ppm (Helicoverpa armigera)?
Answer: The mortality at 3.3 ppm was 100%.

Question: What about the mortality at 10 ppm (Helicoverpa armigera) of the same compound?
Answer: Its mortality at 10 ppm is 100%.
